Experimental data taken from ChEMBL document CHEMBL4373727, “Thienopyrimidinone Derivatives That Inhibit Bacterial tRNA (Guanine37-N1)-Methyltransferase (TrmD) by Restructuring the Active Site with a Tyrosine-Flipping Mechanism” (J Med Chem, 2019).

Experiment: Selectivity ratio of Kd for full length Mycobacterium tuberculosis tRNA (guanine(37)-N1)-methyltransferase expressed in Escherichia coli BL21 (DE3) to Kd for Pseudomonas aeruginosa tRNA (guanine(37)-N1)-methyltransferase (Leu5 to Asp25 residues) expressed in Escherichia coli BL21 (DE3) Rosetta T1R cells

SMILES	Ratio
CCCCCCCCNCc1ccc(CNC(=O)c2csc3nc[nH]c(=O)c23)cc1	100
NC1CCN(Cc2ccc(CNC(=O)c3csc4nc[nH]c(=O)c34)cc2)CC1	100 to 300
